Measurements from patent US10087148B2, “Quinazolines as biogenic amine transport modulators” (THE UNITED STATES OF AMERICA AS REPRESENTED BY THE …, priority 2014, dated 2018).
Read-outs that look alike come from different tables or passages of the source.

What was measured:
[1] = molecular target: T1, dopamine transporter (DAT) (Rattus norvegicus (Rat), UniProt P23977); experiment: [3H]dopamine (DA) uptake inhibition in rat brain (caudate) synaptosomes; format: biochemical
[2] = molecular target: serotonin transporter (SERT) (Rattus norvegicus (Rat), UniProt P31652); experiment: [3H]serotonin (5-HT) uptake inhibition in rat brain synaptosomes; format: biochemical; conditions: for Emax: read-out: SERT Uptake Emax
Sequence of serotonin transporter (SERT) (P31652 whole entry): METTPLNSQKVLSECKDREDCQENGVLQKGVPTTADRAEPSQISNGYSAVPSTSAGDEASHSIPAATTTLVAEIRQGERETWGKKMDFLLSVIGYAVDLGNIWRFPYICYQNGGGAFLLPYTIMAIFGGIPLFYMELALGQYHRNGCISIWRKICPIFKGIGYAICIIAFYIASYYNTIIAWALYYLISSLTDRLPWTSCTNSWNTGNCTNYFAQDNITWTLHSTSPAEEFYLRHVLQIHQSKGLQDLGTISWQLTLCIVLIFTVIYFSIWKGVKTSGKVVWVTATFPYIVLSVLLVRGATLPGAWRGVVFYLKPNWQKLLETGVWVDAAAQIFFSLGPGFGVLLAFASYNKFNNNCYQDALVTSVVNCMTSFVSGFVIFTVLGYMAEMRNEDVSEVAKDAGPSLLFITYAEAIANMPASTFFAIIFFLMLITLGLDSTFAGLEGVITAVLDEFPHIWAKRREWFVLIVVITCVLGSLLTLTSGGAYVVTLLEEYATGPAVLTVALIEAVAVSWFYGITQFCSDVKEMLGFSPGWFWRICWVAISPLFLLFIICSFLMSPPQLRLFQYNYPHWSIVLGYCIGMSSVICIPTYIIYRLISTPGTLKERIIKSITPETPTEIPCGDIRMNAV
Protocol: Uptake inhibition assay for the serotonin transporter was conducted in rat brain synaptosomes as described elsewhere with minor modifications (Rothman et al., Synapse 39, 32-41 (2001)). Freshly removed whole brain minus cerebellum and caudate was homogenized in 10% ice-cold sucrose with 12 strokes of a hand-held Potter-Elvehjem homogenizer followed by centrifugation at 1000×g for 10 min. The supernatants were saved on ice and used immediately. Transporter activity at SERT was assessed using 5 nM [^3H]serotonin. The assay buffer was Krebs-phosphate buffer containing 154.4 mM NaCl, 2.9 mM KCl, 1.1 mM CaCl2, 0.83 mM MgCl2, 5 mM glucose, 1 mg/mL ascorbic acid, and 50 μM pargyline. […] Uptake inhibition assays were conducted at 25° C. and were initiated by adding 100 μL of tissue to 900 μL assay buffer containing test drug and [^3H]serotonin. Test drugs were diluted in assay buffer containing 1 mg/mL bovine serum albumin. Nonspecific uptake was measured by incubating in the presence of 10 μM indatraline. The reactions were stopped after 30 min by rapid vacuum filtration with a cell harvester (BRANDEL) over GF/B filters (Whatman) presoaked in wash buffer maintained at 25° C. (10 mM Tris-HCl, pH 7.4/150 mM NaCl). Filters were rinsed with 6 mL wash buffer and retained tritium was quantified by a MicroBeta liquid scintillation counter (PerkinElmer) after overnight extraction in 0.6 mL of liquid scintillation cocktail (Cytoscint, ICN). The data from three experiments were pooled and fit to a dose-response curve equation (using Kaleidagraph), to yield an Emax and EC50 value.

[3] = molecular target: norepinephrine transporter (NET) (Rattus norvegicus, UniProt Q63380); experiment: [3H]norepinephrine (NE) uptake inhibition in rat brain synaptosomes; format: biochemical; conditions: for Emax: read-out: NET Uptake Emax; for IC50: read-out: NET Uptake IC50, mean ± S.D., n = 3
Sequence of norepinephrine transporter (NET) (Q63380 1-617): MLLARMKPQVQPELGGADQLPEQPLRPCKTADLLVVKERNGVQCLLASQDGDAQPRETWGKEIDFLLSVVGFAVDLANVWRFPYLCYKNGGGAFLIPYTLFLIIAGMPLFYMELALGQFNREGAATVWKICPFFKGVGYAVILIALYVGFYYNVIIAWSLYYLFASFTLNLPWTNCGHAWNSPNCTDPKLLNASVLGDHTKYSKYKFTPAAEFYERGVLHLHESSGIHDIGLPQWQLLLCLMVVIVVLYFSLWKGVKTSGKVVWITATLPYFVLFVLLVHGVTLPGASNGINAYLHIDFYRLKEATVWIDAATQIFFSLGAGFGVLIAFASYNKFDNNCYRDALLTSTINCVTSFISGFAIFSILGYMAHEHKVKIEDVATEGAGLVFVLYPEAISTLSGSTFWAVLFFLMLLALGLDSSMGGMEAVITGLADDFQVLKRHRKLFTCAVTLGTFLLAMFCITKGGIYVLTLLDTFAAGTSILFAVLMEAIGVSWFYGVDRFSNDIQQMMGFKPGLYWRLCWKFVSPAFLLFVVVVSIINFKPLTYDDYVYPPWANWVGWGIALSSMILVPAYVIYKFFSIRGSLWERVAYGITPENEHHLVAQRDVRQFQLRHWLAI
Protocol: Uptake inhibition assay for the norepinephrine transporter was conducted in rat brain synaptosomes as described elsewhere with minor modifications (Rothman et al., Synapse 39, 32-41 (2001)). Freshly removed whole brain minus cerebellum and caudate was homogenized in 10% ice-cold sucrose with 12 strokes of a hand-held Potter-Elvehjem homogenizer followed by centrifugation at 1000×g for 10 minutes. The supernatants were saved on ice and used immediately. Transporter activity at NET was assessed using 10 nM [^3H]norepinephrine. The assay buffer was Krebs-phosphate buffer containing 154.4 mM NaCl, 2.9 mM KCl, 1.1 mM CaCl2, 0.83 mM MgCl2, 5 mM glucose, 1 mg/mL ascorbic acid, and 50 μM pargyline. […] Uptake inhibition assays were conducted at 37° C. and were initiated by adding 100 μL of tissue to 900 μL assay buffer containing test drug and [^3H]norepinephrine. Test drugs were diluted in assay buffer containing 1 mg/mL bovine serum albumin. Nonspecific uptake was measured by incubating in the presence of 10 μM indatraline. The reactions were stopped after 10 minutes by rapid vacuum filtration with a cell harvester (BRANDEL) over GF/B filters (Whatman) presoaked in wash buffer maintained at 25° C. (10 mM Tris-HCl, pH 7.4/150 mM NaCl). Filters were rinsed with 6 mL wash buffer and retained tritium was quantified by a MicroBeta liquid scintillation counter (PerkinElmer) after overnight extraction in 0.6 mL of liquid scintillation cocktail (Cytoscint, ICN). The data from three experiments were pooled and fit to a dose-response curve equation (using Kaleidagraph), to yield an Emax and EC50 value.

[4] = molecular target: T1, dopamine transporter (DAT); experiment: Dopamine transporter-mediated [3H]MPP+ release (d-amphetamine-induced, shift experiments) in rat caudate synaptosomes; format: biochemical; conditions: for Emax: read-out: d-Amphetamine Emax in presence of blocker; for Apparent Kc: [Blocker]/((EC50-2/EC50-1) − 1)
DAT = DAT (Rattus norvegicus (Rat), UniProt P23977); experiment: Inhibition of [3H]WIN35428 binding to rat caudate DAT; conditions: for DAT Binding Emax / Emax / IC50 / DAT Binding IC50: [3H]WIN35428, mean ± S.D., n = 3; for IC50 / DAT Binding IC50: unit as printed in head (text gives 1100 nM where table prints 1.1)
Sequence of DAT (P23977 whole entry): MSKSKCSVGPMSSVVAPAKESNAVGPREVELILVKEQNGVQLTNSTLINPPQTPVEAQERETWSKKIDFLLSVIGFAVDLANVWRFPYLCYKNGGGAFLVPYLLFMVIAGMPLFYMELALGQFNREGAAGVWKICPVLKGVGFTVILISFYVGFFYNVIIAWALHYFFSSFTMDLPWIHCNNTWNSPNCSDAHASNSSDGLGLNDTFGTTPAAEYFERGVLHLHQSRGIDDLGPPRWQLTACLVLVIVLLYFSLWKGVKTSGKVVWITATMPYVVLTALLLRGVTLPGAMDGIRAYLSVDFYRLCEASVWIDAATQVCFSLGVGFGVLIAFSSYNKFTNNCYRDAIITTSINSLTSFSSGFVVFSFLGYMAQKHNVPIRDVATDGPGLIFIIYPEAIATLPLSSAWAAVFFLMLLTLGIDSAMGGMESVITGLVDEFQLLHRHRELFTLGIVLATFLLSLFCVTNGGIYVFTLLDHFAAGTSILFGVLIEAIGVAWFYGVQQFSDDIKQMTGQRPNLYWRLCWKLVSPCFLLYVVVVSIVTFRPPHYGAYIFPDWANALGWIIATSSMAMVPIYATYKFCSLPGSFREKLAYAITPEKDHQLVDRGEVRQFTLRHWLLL
Protocol: All of the test compounds were synthesized as described herein. […] The data from three experiments were pooled and fit to a dose-response curve equation (using KaleidaGraph; Synergy Software, Reading, Pa.) to yield an Emax and IC50 value. […] Selected compounds were also tested for their ability to inhibit [^3H]WIN35428 binding to rat caudate DAT.

[5] = rat brain synaptosomes, 5 nM [3H]serotonin, mean ± SD
[6] = [3H]MPP+ release, blocker concentration per row, mean ± S.D., n = 3
[7] = mean ± S.D., n = 3, read-out: DAT Uptake Emax
[8] = values in Table 9, read-out: Emax for DAT Uptake Inhibition

T1 sequence (P23977 whole entry): as above

| Compound | Emax ([2]; mean ± S.D., n = 3) [%] | Emax [3] [%] | IC50 [3] [nM] | Emax [4, 6] [%] | Emax [1, 7] [%] | Emax [1, 8] [%] | Emax (DAT) [%] | Apparent Kc ([4]; [3H]MPP+ release) [nM] | IC50 (DAT) [nM] | other results |
| --- | --- | --- | --- | --- | --- | --- | --- | --- | --- | --- |
| CS(=O)(=O)Nc1ccc(-c2nc(NCC(c3ccccc3)c3ccncc3)c3ccccc3n2)cc1 (centres unmarked) [Compound 10, N-(4-(4-((2-phenyl-2-(pyridin-4-yl)ethyl)amino)quinazolin-2-yl)phenyl)methanesulfonamide] | 56 ± 1 | 76 ± 2 | 44 ± 6 | 103 ± 3 |  |  |  |  |  | DAT Uptake Emax ([1]; mean ± S.D., n = 3): 71 ± 1%; DA Uptake Emax ([1]; rat caudate synaptosomes, 5 nM [3H]dopamine, mean ± SD): 71 ± 1 % I; 5HT Uptake Emax [2, 5]: 56 ± 1 % I; EC50 [2, 5]: 8.7 ± 0.9 nM; NE Uptake Emax ([3]; rat brain synaptosomes, 10 nM [3H]norepinephrine, mean ± SD): 76 ± 2 % I; EC50 ([3]; read-out: NE Uptake EC50, rat brain synaptosomes, 10 nM [3H]norepinephrine, mean ± SD): 44 ± 6 nM; Emax at 0.125 µM ([4]; read-out: D-Amphetamine Emax in presence of compound, [3H]MPP+ release, compound concentration 125 nM, mean ± SD): 103 ± 3%; DAT Binding Emax (DAT): 52 ± 6% |
| CS(=O)(=O)Nc1ccc(-c2nc(NCC(c3ccccc3)c3ccccc3)c3ccccc3n2)cc1 [Compound 50, N-(4-(4-((2,2-diphenylethyl)amino)quinazolin-2-yl)phenyl)methanesulfonamide] | 56 ± 2 | 71 ± 2 | 90 ± 15 | 102 ± 2 | 70 ± 2 | 70 | 65 ± 6 |  |  |  |
| CN(C)c1ccc(-c2nc(NCC(c3ccccc3)c3ccccc3)c3ccccc3n2)cc1 [Compound 51, 2-(4-(dimethylamino)phenyl)-N-(2,2-diphenylethyl)quinazolin-4-amine] | 44 ± 4 | 68 ± 7 | 143 ± 61 | 101 ± 2 | 70 ± 3 | 70 | 100 ± 3 |  |  | DAT binding IC50 weaker than IC50 for inhibition of DAT uptake (DAT; binding IC50 / uptake IC50): 155 fold |
| c1ccc(C(CCNc2nc(-c3cccnc3)nc3ccccc23)c2ccccc2)cc1 [SRI-29070] | 48 ± 3 | 64 ± 10 | 1740 ± 1150 | 98 ± 1 | 66 ± 4 | 66 | 71 ± 4 | 7050 | 1800 ± 400 | IC50 ([1]; mean ± S.D., n = 3): 174 ± 58 nM; IC50 ([2]; mean ± S.D., n = 3): 699 ± 164 nM |
| c1ccc(C(CNc2nc(-c3cccnc3)nc3ccccc23)c2ccccc2)cc1 [SRI-29072] | 56 ± 9 | 62 ± 5 | 5850 ± 1750 | 96 ± 3 | 71 ± 3 | 71 | 77 ± 2 | 25830 | 2700 ± 300 | IC50 ([1]; mean ± S.D., n = 3): 212 ± 49 nM; IC50 ([2]; mean ± S.D., n = 3): 6380 ± 2640 nM |
| CN(C)c1ncc(-c2nc(NCC(c3ccccc3)c3ccccc3)c3ccccc3n2)cn1 [SRI-29153] | 55 ± 5 | 73 ± 4 | 181 ± 46 | 101 ± 3 | 73 ± 1 | 73 | 76 ± 2 | 1820 | 1700 ± 200 |  |
| c1ccc(C(CNc2nc(-c3ccc4[nH]ccc4c3)nc3ccccc23)c2ccccc2)cc1 [SRI-29155] | 54 ± 2 | 70 ± 3 | 290 ± 52 | 94 ± 2 | 74 ± 1 | 74 | 87 ± 4 | 456 | 900 ± 200 |  |
| CN(C)c1ncc(-c2nc(NCCC(c3ccccc3)c3ccccc3)c3ccccc3n2)cn1 [SRI-29212] | 50 ± 7 | 64 ± 5 | 8130 ± 2270 | 103 ± 2 | 67 ± 4 | 67 | 72 ± 4 | 64580 | 2200 ± 500 | IC50 ([1]; mean ± S.D., n = 3): 672 ± 204 nM; IC50 ([2]; mean ± S.D., n = 3): 3800 ± 1640 nM |
| CN(C)c1ccc(-c2nc(NCC(c3ccccc3)c3ccccc3)c3ccccc3n2)cn1 [SRI-29779] | 51 ± 2 | 71 ± 6 | 147 ± 63 | 99 ± 2 | 63 ± 3 | 63 | 83 ± 3 | 912 | 1200 ± 200 |  |
| c1ccc(C(CNc2nc(-c3cnc4nccn4c3)nc3ccccc23)c2ccccc2)cc1 [SRI-29991] | 51 ± 1 | 69 ± 2 | 63 ± 9 | 102 ± 2 | 68 ± 1 | 68 | 18 ± 4 | -1070 | 1220 ± 1120 |  |
| c1ccc(C(CNc2nc(-c3cnc4nccn4c3)nc3ccccc23)C2CCCCC2)cc1 (centres unmarked) [SRI-30517] | 54 ± 1 | 70 ± 2 | 95 ± 12 | 104 ± 4 | 70 ± 1 | 70 | 43 ± 4 | 1600 | 160 ± 80 |  |
| c1ccc(C(CNc2nc(-c3ccc4ncnn4c3)nc3ccccc23)c2ccccc2)cc1 [SRI-30522] | 35 ± 3 | 40 ± 5 | 86 ± 55 | 105 ± 4 | 63 ± 1 | 63 |  |  |  | DAT Binding Emax (DAT): Inactive; DAT Binding IC50 (DAT): Inactive |
| c1ccc(C(CNc2nc(-c3cnc4nccn4c3)nc3ccccc23)c2ccncc2)cc1 (centres unmarked) [SRI-30810] | 51 ± 2 | 69 ± 2 | 60 ± 10 | 104 ± 5 | 64 ± 1 | 64 | 25 ± 2 | 1200 | 820 ± 360 |  |
| c1ccc(C(CNc2nc(-c3ccc4nccn4c3)nc3ccccc23)c2ccc[nH]2)cc1 (centres unmarked) [SRI-30826] | 56 ± 2 | 81 ± 2 | 88 ± 15 | 105 ± 4 | 64 ± 2 | 64 | 42 ± 3 | 1600 | 1280 ± 400 |  |
| Cc1cc2nccn2cc1-c1nc(NCC(c2ccccc2)c2ccccc2)c2ccccc2n1 [SRI-30827] | 58 ± 3 | 67 ± 3 | 21 ± 7 | 104 ± 3 | 63 ± 2 | 63 | 79 ± 3 | 267 | 1990 ± 330 |  |
| Cl.Fc1ccc2c(NCC(c3ccccc3)c3ccccc3)nc(-c3ccc4nccn4c3)nc2c1 [SRI-31034] |  | 63 ± 3 | 94 ± 22 |  |  |  |  | 3200 |  | Emax ([1]; read-out: DAT Uptake Emax): 69 ± 1%; Emax ([1]; read-out: Emax for DAT Uptake Inhibition): 69%; Emax [2]: 49 ± 2%; Emax [4]: 104 ± 5%; DAT Binding Emax (DAT): Inactive; DAT Binding IC50 (DAT): Inactive |
| Cc1cc2nccn2cc1-c1nc(NCC(c2ccccc2)c2ccc[nH]2)c2ccccc2n1 (centres unmarked) [SRI-31040] | 54 ± 2 | 70 ± 4 | 11 ± 4 | 105 ± 3 | 69 ± 1 | 69 | 91 ± 7 | 55 | 3740 ± 1100 |  |
| Cc1cc2nccn2cc1-c1nc(NCC(c2ccccc2)c2ccncc2)c2ccccc2n1 (centres unmarked) [SRI-31142] | 48 ± 1 | 61 ± 2 | 17 ± 4 | 103 ± 3 | 72 ± 2 | 72 | 92 ± 4 | 400 | 2340 ± 450 |  |
